From patent publication US10364263B2, “Cyclic phosphates and cyclic phosphoramidates for the treatment of neurologic disorders” (Retrophin, Inc., priority 2015, dated 2019)
Where two headings read alike, the source gives them in different places.

Assays:
[1] = Stability in mouse hepatocytes; assay type: in vitro ADME
Procedure: (§1) Stability in hepatocytes for select compounds disclosed in the application was evaluated in two species (mouse and human) according to the following procedure. Compounds and positive control samples were dissolved in 100% DMSO at 5 mM. Cryopreserved hepatocytes were thawed and resuspended in Hepatocyte Basal Medium (HBM-Lonza CC-3199) supplemented with CC-4182 (complete hepatocyte culture medium). Test compounds were diluted into cell suspension (1 million cells/ml) from the stock solutions to have a test compound concentration of 5 μM (0.1% DMSO). Incubation was performed in 24-well plates, at 37° C. in a DUBNOFF water bath, under low shaking. Each compound was tested at 6 time points, in duplicates (0, 15, 30, 60, 120 and 240 min). At each time point, an aliquot of 120 μl was taken and transferred to a 96-well deep plate. The reaction was stopped with the addition of one volume of 100% acetonitrile plus 0.1% formic acid and the appropriate internal standard. Then samples were centrifuged at 1100×g for 30 min at +4° C. and supernatants were transferred to a new 96-deepwell plate. Samples were evaporated under N2 and reconstituted in H2O/ACN 0.1% Formic Acid (98:2). Analysis was performed without a calibration curve (Acquity UPLC-Waters; Sciex API4000). Time 0 was obtained adding acetonitrile before addition of the test compound. […] The half-life (t1/2) expressed in hours is derived using Equation 1 as shown in Example 64.

[2] = Stability in mouse plasma; assay type: in vitro ADME
Outline: (§2)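 Test compound at 3 μM (0.1% DMSO) was incubated in mouse or human plasma at 37 °C and sampled in duplicate at 0, 10, 20, 30, 40 and 60 min. Reactions were stopped with acetonitrile/formic acid containing internal standard. Remaining parent was measured by UPLC-MS/MS without a calibration curve.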

[3] = system: PANK2 silenced human neuroblastoma IMR32 cells (PANK2−/−); test: Coenzyme A assay in PANK2 silenced cells (LC-MS quantification of free CoA); assay type: cell-based; settings: compound added twice (24 h + 24 h), relative to 0.1% DMSO controls
Outline: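 Free intracellular CoA was measured by positive-mode LC-MS/MS of 20% TFA extracts, taking 2 μl per 10^6 cells as intracellular volume. Cells were IMR32 with stable lentiviral PANK2 knockdown, dosed twice 24 h apart (48 h total, 0.1% DMSO). Output is fold increase over vehicle.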

[4] = Stability in human plasma; assay type: in vitro ADME; settings: 37° C.; for t1/2, Human Plasma, Diastereoisomer B: 3 μM
Outline: as §2

[5] = Stability in human hepatocytes; assay type: in vitro ADME; settings: for half-life at 5 µM: t1/2, Human Hepatocytes; for half-life: 5 μM, 1 million cells/ml, 37° C., human hepatocytes
Procedure: as §1

[6] = t1/2, Mouse Hepatocytes, Diastereoisomer A
[7] = t1/2, Mouse Hepatocytes, Diastereoisomer B
[8] = human, plasma, Diastereoisomer A (upfield shift in 31P NMR), read-out: t1/2, Human Plasma, Diastereoisomer A (converted)
[9] = human, plasma, Diastereoisomer B, read-out: t1/2, Human Plasma, Diastereoisomer B (converted)
[10] = Diastereoisomer A (upfield shift in 31P NMR), 5 μM, 1 million cells/ml, 37° C., mouse hepatocytes, read-out: t1/2, Mouse Hepatocytes, Diastereoisomer A (converted)
[11] = Diastereoisomer B, 5 μM, 1 million cells/ml, 37° C., mouse hepatocytes, read-out: t1/2, Mouse Hepatocytes, Diastereoisomer B (converted)
[12] = Diastereoisomer A (upfield shift in 31P NMR), 3 μM, 37° C., mouse plasma, read-out: t1/2, Mouse Plasma, Diastereoisomer A
[13] = Diastereoisomer B, 3 μM, 37° C., mouse plasma
[14] = Diastereoisomer A (upfield shift in 31P NMR), read-out: t1/2, Human Plasma, Diastereoisomer A (converted)
[15] = Diastereoisomer A (upfield shift in 31P NMR), read-out: t1/2, Human Hepatocytes, Diastereoisomer A (converted)
[16] = Diastereoisomer B, read-out: t1/2, Human Hepatocytes, Diastereoisomer B (converted)

Row | Compound | half-life at 5 µM [1, 6] | half-life at 5 µM [1, 7] | half-life at 3 µM ([2]; mouse, plasma) | t1/2, Mouse Plasma, Diastereoisomer B ([2]; mouse, plasma, 3 µM) | half-life at 3 µM [4, 8] | half-life at 3 µM [4, 9] | half-life at 5 µM ([5]; Diastereoisomer A) | half-life at 5 µM ([5]; Diastereoisomer B) | PANK2−/− CoA (Fold Increase): fold increase in Coenzyme A (CoA) levels relative to controls [3] | half-life at 5 µM [1, 10] | half-life at 5 µM [1, 11] | half-life at 3 µM [2, 12] | t1/2, Mouse Plasma, Diastereoisomer B [2, 13] | half-life at 3 µM [4, 14] | t1/2, Human Plasma, Diastereoisomer B ([4]; Diastereoisomer B) | half-life [5, 15] | half-life [5, 16]
1 | COC(=O)CCNC(=O)[C@@H]1OP(=O)(N[C@H](C(=O)OC)C(C)C)OCC1(C)C (stereo partly drawn) [compound 1, (2S)-methyl 2-(((4R)-4-((3-methoxy-3-oxopropyl)carbamoyl)-5,5-dimethyl-2-oxido-1,3,2-dioxaphosphinan-2-yl)amino)-3-methylbutanoate] |  |  |  |  |  |  |  |  | 1.51 Fold Increase | 25.8 min | < 15 min | < 9.6 min | <9.6 min | > 60 min | >60 min | 77.4 min | 78.6 min
2 | COC(=O)CCNC(=O)[C@@H]1OP(=O)(OCOC(C)=O)OCC1(C)C (stereo partly drawn) [Compound No. 68, Methyl 3-((4R)-2-(acetoxymethoxy)-5,5-dimethyl-2-oxido-1,3,2-dioxaphosphinane-4-carboxamido)propanoate] | < 15 min | < 15 min |  |  |  |  | < 15 min | < 15 min | 125.97 Fold Increase |  |  |  |  |  |  |  | 
3 | COC(=O)CCNC(=O)[C@@H]1OP(=O)(N[C@@H](Cc2ccccc2)C(=O)OC(C)(C)C)OCC1(C)C (stereo partly drawn) [compound 4] |  |  |  |  |  |  |  |  | 1.2 Fold Increase | 34.8 min |  | < 9.6 min |  | > 60 min |  | 26.4 min | 
4 | COC(=O)CCNC(=O)[C@@H]1OP(=O)(N[C@H](C(=O)OC(C)(C)C)C2CCCCC2)OCC1(C)C (stereo partly drawn) [compound 14, methyl 3-((4R)-2-(((S)-2-(tert-butoxy)-1-cyclohexyl-2-oxoethyl)amino)-5,5-dimethyl-2-oxido-1,3,2-dioxaphosphinane-4-carboxamido)propanoate] | < 15 min | < 15 min | < 9.6 min | <9.6 min | > 60 min | > 60 min | 17.4 min | < 15 min | 1.59 Fold Increase |  |  |  |  |  |  |  | 
5 | COC(=O)CCNC(=O)[C@@H]1OP(=O)(N[C@H](C)C(=O)OCCc2ccccc2)OCC1(C)C (stereo partly drawn) [compound 26, methyl 3-((4R)-5,5-dimethyl-2-oxido-2-(((R)-1-oxo-1-phenethoxypropan-2-yl)amino)-1,3,2-dioxaphosphinane-4-carboxamido)propanoate] | < 15 min | < 15 min | < 9.6 min | <9.6 min | > 60 min | > 60 min | 18.6 min | < 15 min | 2.29 Fold Increase |  |  |  |  |  |  |  | 
6 | COC(=O)CCNC(=O)[C@@H]1OP(=O)(N[C@@H](Cc2cncs2)C(=O)OCc2ccccc2)OCC1(C)C (stereo partly drawn) [compound 29, benzyl (2S)-2-(((4R)-4-((3-methoxy-3-oxopropyl)carbamoyl)-5,5-dimethyl-2-oxido-1,3,2-dioxaphosphinan-2-yl)amino)-3-(thiazol-5-yl)propanoate] | < 15 min | < 15 min | < 9.6 min | <9.6 min | > 60 min | > 60 min | 36 min | 15.6 min | 1.17 Fold Increase |  |  |  |  |  |  |  | 
7 | COC(=O)CCNC(=O)[C@@H]1OP(=O)(NCC(=O)OCc2ccccc2)OCC1(C)C (stereo partly drawn) [compound 118, methyl 3-((4R)-2-((2-(benzyloxy)-2-oxoethyl)amino)-5,5-dimethyl-2-oxido-1,3,2-dioxaphosphinane-4-carboxamido) propanoate] |  |  |  |  |  |  |  |  | 2.96 Fold Increase | < 15 min | < 15 min | < 9.6 min | <9.6 min | > 60 min | >60 min | 25.8 min | < 15 min

Second part, led by results:

Row | half-life at 5 µM [1, 6] | half-life at 5 µM [1, 7] | half-life at 3 µM ([2]; mouse, plasma) | t1/2, Mouse Plasma, Diastereoisomer B ([2]; mouse, plasma, 3 µM) | half-life at 3 µM [4, 8] | half-life at 3 µM [4, 9] | half-life at 5 µM ([5]; Diastereoisomer A) | half-life at 5 µM ([5]; Diastereoisomer B) | Compound | PANK2−/− CoA (Fold Increase): fold increase in Coenzyme A (CoA) levels relative to controls [3] | half-life at 5 µM [1, 10] | half-life at 5 µM [1, 11] | half-life at 3 µM [2, 12] | t1/2, Mouse Plasma, Diastereoisomer B [2, 13] | half-life at 3 µM [4, 14] | t1/2, Human Plasma, Diastereoisomer B ([4]; Diastereoisomer B) | half-life [5, 15] | half-life [5, 16]
8 | 28.2 min | 24 min | < 9.6 min | <9.6 min | > 60 min | > 60 min | 31.8 min | < 15 min | COC(=O)CCNC(=O)[C@@H]1OP(=O)(N[C@H](C(=O)OCc2ccccc2)C(C)C)OCC1(C)C (stereo partly drawn) [compound 13, benzyl ((4R)-4-((3-methoxy-3-oxopropyl)carbamoyl)-5,5-dimethyl-2-oxido-1,3,2-dioxaphosphinan-2-yl)-L-valinate] | 1 Fold Increase |  |  |  |  |  |  |  | 
9 | < 15 min |  | < 9.6 min |  | 45.6 min |  | < 15 min |  | COC(=O)CCNC(=O)[C@@H]1O[P@@](=O)(OCOC(=O)C(C)(C)C)OCC1(C)C (single isomer, unassigned) [Compound No. 90] | 286.0 Fold Increase |  |  |  |  |  |  |  | 
10 | < 15 min | < 15 min | < 9.6 min | <9.6 min | > 60 min | < 9.6 min | < 15 min | < 15 min | CCC(CC)C(=O)OCOP1(=O)OCC(C)(C)[C@H](C(=O)NCCC(=O)OC)O1 (stereo partly drawn) [Compound No. 67, (((4R)-4-((3-methoxy-3-oxopropyl)carbamoyl)-5,5-dimethyl-2-oxido-1,3,2-dioxaphosphinan-2-yl)oxy)methyl 2-ethylbutanoate] | 122.4 Fold Increase |  |  |  |  |  |  |  | 
11 | < 15 min | < 15 min | < 9.6 min | <9.6 min | < 9.6 min | < 9.6 min | 31.2 min | < 15 min | COC(=O)CCNC(=O)[C@@H]1OP(=O)(OCOC(=O)c2ccc(CN3CCCC3)cc2)OCC1(C)C (stereo partly drawn) [Compound No. 76, (((4R)-4-((3-methoxy-3-oxopropyl)carbamoyl)-5,5-dimethyl-2-oxido-1,3,2-dioxaphosphinan-2-yl)oxy)methyl 4-(pyrrolidin-1-ylmethyl)benzoate] | 79.95 Fold Increase |  |  |  |  |  |  |  | 
12 | < 15 min | < 15 min | < 9.6 min | <9.6 min | > 60 min | 18 min | < 15 min | < 15 min | COC(=O)CCNC(=O)[C@@H]1OP(=O)(OC(C)OC(=O)c2ccccc2)OCC1(C)C (stereo partly drawn) [compound 98, 1-(((4R)-4-((3-methoxy-3-oxopropyl)carbamoyl)-5,5-dimethyl-2-oxido-1,3,2-dioxaphosphinan-2-yl)oxy)ethyl benzoate] | 4.01 Fold Increase |  |  |  |  |  |  |  | 
13 | < 15 min | < 15 min | < 9.6 min | <9.6 min | > 60 min | < 9.6 min | 26.4 min | 19.8 min | CC(C)(C)C(=O)OCO[P@@]1(=O)OCC(C)(C)[C@H](C(=O)NCCC(=O)OCCS(C)(=O)=O)O1 (single isomer, unassigned) [Compound No. 78] | 120.6 Fold Increase |  |  |  |  |  |  |  | 
